# Measured values taken from patent US20260130885A1, “ANTIMICROBIAL COMPOSITIONS, PHARMACEUTICAL COMPOSITIONS AND USE THEREOF” (priority 2022, published 2026).
# Read-outs that look alike come from different tables or passages of the source.
# Experiments:
# S. aureus ATCC29213 = assay: Antibacterial activity assay (MIC, broth microdilution); type: cell-based, Staphylococcus aureus; settings: for MIC: Staphylococcus aureus; for combination effect: MIC, +8 mg/L DHA
# MRSA ATCC43300 = assay: as above; type: cell-based, Staphylococcus aureus; settings: for MIC: Staphylococcus aureus; for combination effect: MIC
# VRSA SJC1200 = assay: as above; type: cell-based, Staphylococcus aureus; settings: for MIC: Staphylococcus aureus, VRSA; for combination effect: MIC
# MRSA USA300 = assay: Antibacterial activity assay (MIC by broth microdilution, MBC by subculture); type: cell-based, Staphylococcus aureus; settings: for combination effect: MIC
# Procedure: (§1) The antimicrobial activity was based on MIC and MBC; MIC is the minimum inhibitory concentration and MBC is the minimum bactericidal concentration. The MIC of individual test agents against MRSA USA300 strains was determined using the broth microdilution method according to CLSI guidelines. Briefly, overnight bacterial cultures in LB medium were diluted 1:50 in fresh LB medium and incubated at 37° C. until reaching an OD600 of 0.5 to 0.6. Bacterial suspensions were diluted to a final concentration of 5×10^5 cfu/mL in fresh CAMHB and then exposed to each test agent at increasing doses in triplicate in 96-well plates for 24 hours at 37° C. The MIC of each agent was defined as the lowest concentration without visible bacterial growth. […] The lowest broth dilution that had no viable bacteria was considered the MBC.
# (§2) Then, the combination effect was measured by calculating their corresponding fractional inhibitory concentration index (FICI) with the equation ΣFIC (FICi)=FICA+FICB=(CombA/MICA)+(CombB/MICB), where MICA and MICB are the MICs of drugs A and B alone, respectively, and CombA and CombB are the concentrations of drugs A and B in combination, respectively. Combination effect was defined as an FICI≤0.5, no interaction was defined as an FICI>0.5-4.0, and antagonism was defined as an FICI>4.
# MRSA ATCC49476 = assay: Antibacterial activity assay (MIC, broth microdilution); type: cell-based, Staphylococcus aureus; settings: for MIC: Staphylococcus aureus; for combination effect: MIC
# MRSA SCCmec VT = assay: as above; type: cell-based, Staphylococcus aureus; settings: for MIC: Staphylococcus aureus, MRSA; for combination effect: MIC
# S. aureus NCTC8325 = assay: as above; type: cell-based, Staphylococcus aureus; settings: for MIC: Staphylococcus aureus; for combination effect: MIC, +8 mg/L DHA
# MRSA ATCC33592 = assay: as above; type: cell-based, Staphylococcus aureus; settings: for MIC: Staphylococcus aureus; for combination effect: MIC
# [1] = system: antibiotic-resistant Staphylococcus aureus; assay: MIC against all strains of Table 4; type: cell-based; settings: agent alone, all the bacterial strains under the examination
# Procedure: as §1
# as §2, with “Combination effect was defined as an FICI≤0.5, no interaction was defined as an FICI>0.5-4.0, and antagonism was defined as an FICI>4.” left out
# The antibacterial activity of the SC5005-DHA composition against a series of antibiotic-resistant Staphylococcus aureus was analyzed, and the results are shown in Table 4.
# S. aureus DAP-NS = assay: Antibacterial activity assay (MIC, broth microdilution); type: cell-based, Staphylococcus aureus; settings: for MIC: Staphylococcus aureus; for combination effect: MIC
# MRSA ATCC33591 = assay: as above; type: cell-based, Staphylococcus aureus; settings: for MIC: Staphylococcus aureus; for combination effect: MIC
# [2] = system: S. aureus NCTC8325 persister cells; assay: Persister killing assay; type: cell-based, Staphylococcus aureus; settings: 16×MIC, 16 mg/L; FIG. 1
# Procedure: (§3) The number of viable bacteria in broth after each exposure period was enumerated by a cfu assay and expressed as cfu/mL; the data shown are the mean±SD (standard deviation) of independent experiments. […] The number of viable bacteria in the broth after each exposure period was calculated by a cfu assay (cfu/mL); the data are shown as the mean±SD of three independent experiments (n=3 for each group). Since the standard deviation of each point is very small, the error line is not shown in each graph. The horizontal dashed line in the upper left graph and the upper right graph represents […] of the bacterial cells killed. In addition, the blank controls in FIG. 1 are shown as filled diamonds.
# (§4) Bacteria were collected by centrifugation at 4000×g for 10 min at 4° C., washed with ice-cold PBS, and suspended in PBS with test agents. Controls received DMSO and ethanol vehicles at concentrations equal to those for drug-treated bacteria. At the designated times, the number of viable bacteria was assessed by serial dilution of a 100 μL aliquot bacterial suspension in PBS and then spread onto LB agar plates. After incubation at 37° C. for 18-24 hours, the number of colonies was counted and expressed as cfu/mL.
# [3] = system: MRSA USA300 persister cells; assay: Persister killing assay; type: cell-based, Staphylococcus aureus; settings: 16×MIC, 16 mg/L; FIG. 1
# Procedure: as §3, §4
# [4] = Staphylococcus aureus, fatty acid alone, read-out: MBC fatty acid
# [5] = Staphylococcus aureus, fatty acid alone, read-out: MIC fatty acid
# [6] = +8 mg/L DHA, MRSA USA300 (Table 4)
# [7] = Staphylococcus aureus, amide compound alone, read-out: MBC
# [8] = Staphylococcus aureus, amide compound alone, read-out: MIC
# [9] = agent alone, MRSA USA300 (Table 4)
SMILES,"MIC (S. aureus ATCC29213; ATCC29213, agent alone)",MIC (MRSA ATCC43300; agent alone),MIC (VRSA SJC1200; agent alone),MBC (MRSA USA300; [4]),MIC (MRSA USA300; [5]),MIC (MRSA ATCC49476; agent alone),MIC (MRSA SCCmec VT; agent alone),"MIC (S. aureus NCTC8325; NCTC8325, agent alone)",MIC (MRSA ATCC33592; agent alone),MIC (S. aureus DAP-NS; agent alone),MIC (MRSA ATCC33591; agent alone),combination effect (S. aureus ATCC29213),"MIC (S. aureus ATCC29213; ATCC29213, +8 mg/L DHA)",combination effect (MRSA ATCC43300; +8 mg/L DHA),MIC (MRSA ATCC43300; +8 mg/L DHA),combination effect (VRSA SJC1200; +8 mg/L DHA),MIC (VRSA SJC1200; +8 mg/L DHA),MBC (MRSA USA300; +8 mg/L DHA),MIC (MRSA USA300; +8 mg/L DHA),MIC (MRSA USA300; [6]),other results
"CC/C=C\C/C=C\C/C=C\C/C=C\C/C=C\C/C=C\CCC(=O)O [DHA, docosahexaenoic acid]",1020 µg/mL,1020 µg/mL,1020 µg/mL,1020 µg/mL,1020 µg/mL,1020 µg/mL,1020 µg/mL,1020 µg/mL,1020 µg/mL,1020 µg/mL,1020 µg/mL,,,,,,,,,,"MIC (MRSA USA300; Staphylococcus aureus, agent alone, MRSA USA300 (Table 4), read-out: MIC): 1020 µg/mL; MIC [1]: 1020 µg/mL"
O=C(Nc1ccc2c(c1)OC(F)(F)O2)Nc1ccc(Cl)c(C(F)(F)F)c1 [PK150],0.0625 µg/mL,0.0625 µg/mL,0.125 µg/mL,,,0.0625 µg/mL,0.125 µg/mL,0.0625 µg/mL,0.0625 µg/mL,0.0625 µg/mL,0.0625 µg/mL,(Syn) (Synergy (Syn) was defined as an FICI≤0.5),0.0039 µg/mL,(Syn) (Synergy (Syn) was defined as an FICI≤0.5),0.00098 µg/mL,(Syn) (Synergy (Syn) was defined as an FICI≤0.5),0.00012 µg/mL,0.00098 µg/mL,0.00049 µg/mL,0.00049 µg/mL,"synergy of the amide compound with DHA (in words) (MRSA USA300; MIC after adding DHA is less than ¼ of its original MIC, 8 mg/L DHA): synergistic antibacterial activity with DHA; combination effect (MRSA USA300; [6]): (Syn) (Synergy (Syn) was defined as an FICI≤0.5); MBC (MRSA USA300; [7]): 2 µg/mL; MIC (MRSA USA300; [8]): 0.0625 µg/mL; MIC (MRSA USA300; [9]): 0.0625 µg/mL; combination effect (MRSA ATCC49476; +8 mg/L DHA): | (Syn) (Synergy (Syn) was defined as an FICI≤0.5); MIC (MRSA ATCC49476; +8 mg/L DHA): 1.5e-05 µg/mL; combination effect (MRSA SCCmec VT; +8 mg/L DHA): (Syn) (Synergy (Syn) was defined as an FICI≤0.5); MIC (MRSA SCCmec VT; +8 mg/L DHA): 0.00098 µg/mL; combination effect (S. aureus NCTC8325): (Syn) (Synergy (Syn) was defined as an FICI≤0.5); MIC (S. aureus NCTC8325; NCTC8325, +8 mg/L DHA): 3.5e-05 µg/mL; combination effect (MRSA ATCC33592; +8 mg/L DHA): (Syn) (Synergy (Syn) was defined as an FICI≤0.5); MIC (MRSA ATCC33592; +8 mg/L DHA): 0.00098 µg/mL; combination effect (S. aureus DAP-NS; +8 mg/L DHA): (Syn) (Synergy (Syn) was defined as an FICI≤0.5); MIC (S. aureus DAP-NS; +8 mg/L DHA): 0.0156 µg/mL; combination effect (MRSA ATCC33591; +8 mg/L DHA): | (Syn) (Synergy (Syn) was defined as an FICI≤0.5); MIC (MRSA ATCC33591; +8 mg/L DHA): 6.1e-05 µg/mL"
CNC(=O)c1cc(Oc2ccc(NC(=O)Nc3ccc(Cl)c(C(F)(F)F)c3)cc2)ccn1 [Sorafenib],64 µg/mL,> 64 µg/mL,> 64 µg/mL,,,> 64 µg/mL,> 64 µg/mL,4 µg/mL,> 64 µg/mL,32 µg/mL,> 64 µg/mL,(Syn) (Synergy (Syn) was defined as an FICI≤0.5),0.5 µg/mL,(Syn) (Synergy (Syn) was defined as an FICI≤0.5),0.5 µg/mL,(Syn) (Synergy (Syn) was defined as an FICI≤0.5),0.5 µg/mL,1 µg/mL,0.5 µg/mL,0.5 µg/mL,"combination effect (MRSA USA300; [6]): (Syn) (Synergy (Syn) was defined as an FICI≤0.5); MBC (MRSA USA300; [7]): > 64 µg/mL; MIC (MRSA USA300; [8]): > 64 µg/mL; MIC (MRSA USA300; [9]): >64 µg/mL; combination effect (MRSA ATCC49476; +8 mg/L DHA): (Syn) (Synergy (Syn) was defined as an FICI≤0.5); MIC (MRSA ATCC49476; +8 mg/L DHA): 0.5 µg/mL; combination effect (MRSA SCCmec VT; +8 mg/L DHA): (Syn) (Synergy (Syn) was defined as an FICI≤0.5); MIC (MRSA SCCmec VT; +8 mg/L DHA): 0.5 µg/mL; combination effect (S. aureus NCTC8325): (Syn) (Synergy (Syn) was defined as an FICI≤0.5); MIC (S. aureus NCTC8325; NCTC8325, +8 mg/L DHA): 0.5 µg/mL; combination effect (MRSA ATCC33592; +8 mg/L DHA): (Syn) (Synergy (Syn) was defined as an FICI≤0.5); MIC (MRSA ATCC33592; +8 mg/L DHA): 0.5 µg/mL; combination effect (S. aureus DAP-NS; +8 mg/L DHA): (Syn) (Synergy (Syn) was defined as an FICI≤0.5); MIC (S. aureus DAP-NS; +8 mg/L DHA): 0.5 µg/mL; combination effect (MRSA ATCC33591; +8 mg/L DHA): (Syn) (Synergy (Syn) was defined as an FICI≤0.5); MIC (MRSA ATCC33591; +8 mg/L DHA): 0.5 µg/mL"
"CN[C@H](CC(C)C)C(=O)N[C@H]1C(=O)N[C@@H](CC(N)=O)C(=O)N[C@H]2C(=O)N[C@H]3C(=O)N[C@H](C(=O)N[C@H](C(=O)O)c4cc(O)cc(O)c4-c4cc3ccc4O)[C@H](O)c3ccc(c(Cl)c3)Oc3cc2cc(c3O[C@@H]2O[C@H](CO)[C@@H](O)[C@H](O)[C@H]2O[C@H]2C[C@](C)(N)[C@H](O)[C@H](C)O2)Oc2ccc(cc2Cl)[C@H]1O [vancomycin, reference compound]",,,,,,,,,,,,,,,,,,,,,killing of persister cells (in words) [2]: resistant to the killing activity; killing of persister cells (in words) [3]: resistant to the killing activity
"CC/C=C\C/C=C\C/C=C\CCCCCCCC(=O)O [α- linolenic acid, α-linolenic acid]",,,,1020 µg/mL,256 µg/mL,,,,,,,,,,,,,,,,
